Measured values: patent US6608069B1, “Phenyl xanthine derivatives” (SmithKline Beecham Corporation, priority 1998, dated 2003)
Where a name gives a salt, the structure may show the parent alone.

Tested on: cytokine-stimulated human umbilical vein endothelial cells
Test: Cell Adhesion Assay: adherence of fluorescently-labelled leukocytes to endothelial cell monolayers
Type: cell-based
Conditions: inhibition of cytokine-stimulated adhesion minus basal adhesion, calcein-AM labelled leukocytes on HUVEC monolayers
Description: The antiadhesion activity of compounds of the invention was determined using a modification of the previously described method, Jurgensen, C. H. et. al., J. Immunol. 144: 653-661. The adhesiveness of cytokine-stimulated human umbilical vein endothelial cells was assessed by quantitating the adherence of fluorescently-labelled (calcein-AM, Molecular Probes, Eugene, Oreg.) leukocytes to endothelial cell monolayers. Activity was determined by calculating inhibition of cytokine-stimulated adhesion minus the basal adhesion (unstimulated).

| SMILES | IC50 [nM] | further results |
| --- | --- | --- |
| CCCn1c(=O)c2nc(-c3cccc(/C=C/C(=O)OCCOCCOCCOCCOCCOCCOCCOCCOCCOC)c3)[nH]c2n(CCC)c1=O [Example 60, (E)-3-(1,3-bis(propyl)-1,2,3,6-tetrahydro-2,6-dioxo-9H-purin-8-yl)cinnamic Acid Nonaethylene Glycol Methyl Ether Ester] | > 1000 | – |
| COCCOCCOCCOCCOCCOCCOCCOCCOCCNC(=O)/C=C/c1ccc(-c2nc3c(c(=O)n(CC4CCCCC4)c(=O)n3CC3CCCCC3)n2Cc2ccccc2)cc1 [Example 92, (E)-4-(1,3-Bis(cyclohexylmethyl)-2,3,6,7-tetrahydro-2,6-dioxo-7-benzyl-1H-purin-8-yl)cinnamic Acid Nonaethylene Glycol Methyl Ether Amide] | 23 ± 12 | – |
| COCCOCCOCCOCCOCCOCCOCCOCCOCCOC(=O)/C=C/c1ccc(-c2nc3c(c(=O)n(CC4CCCCC4)c(=O)n3CC3CCCCC3)n2CC#N)cc1 [Example 87, (E)-4-(1,3-Bis(cyclohexylmethyl)-2,3,6,7-tetrahydro-2,6-dioxo-7-(cyanomethyl)-1H-purin-8-yl)cinnamic Acid Nonaethylene Glycol Methyl Ether Ester] | 37 ± 13 | – |
| COCCOCCOCCOCCOCCOCCOCCOCCOCCN(CC1CC1)C(=O)/C=C/c1ccc(-c2nc3c(=O)n(CC4CCCCC4)c(=O)n(CC4CCCCC4)c3[nH]2)cc1 [Example 100, (E)-4-(1,3-Bis(cyclohexylmethyl)-1,2,3,6-tetrahydro-2,6-dioxo-9H-purin-8-yl)cinnamic Acid N-cyclopropylmethyl Nonaethylene Glycol Methyl Ether Amide] | 25 ± 8 | – |
| COCCOCCOCCOCCOCCOCCOCCOCCOCCOC(=O)/C=C/c1ccc(-c2nc3c(=O)n(C)c(=O)n(C)c3[nH]2)cc1 [Example 47, (E)-4-(1,3-bis(methyl)-1,2,3,6-tetrahydro-2,6-dioxo-9H-purin-8-yl)cinnamic Acid Nonaethylene Glycol Methyl Ether Ester] | 710 ± 410 | – |
| COCCOCCOCCOCCOCCOCCOCCOCCOCCOC(=O)/C=C/c1ccc(-c2nc3c(=O)n(CCC4CCCCC4)c(=O)n(CCC4CCCCC4)c3[nH]2)cc1 [Example 41, (E)-4-(1,3-bis(2-cyclohexylethyl)-1,2,3,6-tetrahydro-2,6-dioxo-9H-purin-8-yl)cinnamic Acid Nonaethylene Glycol Methyl Ether Ester] | 21 ± 12 | – |
| COCCOCCOCCOCCOCCOCCOCCOCCOCCOC(=O)CCc1ccc(-c2nc3c(c(=O)n(CC4CCCCC4)c(=O)n3CC3CCCCC3)n2C)cc1 [Example 90, 4-[(1,3-Bis(cyclohexylmethyl)-2,3,6,7-tetrahydro-2,6-dioxo-7-methyl-1H-purin-8-yl)phenyl] propionic Acid Nonaethylene Glycol Methyl Ether Ester] | 240 ± 140 | – |
| COCCOCCOCCOCCOCCOCCOCCOCCOCCOCc1cccc(-c2nc3c([nH]2)c(=O)n(CC2CCCCC2)c(=O)n3CC2CCCCC2)c1 [Example 110, 1,3-Bis(cyclohexylmethyl)-8-[3-(2,5,8,11,14,17,20,23,26,29-decaoxatriacont-1-yl)phenyl]-3,7-dihydro-1H-purine-2,6-dione] | – | IC50 (Homo sapiens): 29 ± 11 nM |
| COCCOCCOCCOCCOCCOCCOCCOCCOCCNCc1ccc(-c2nc3c(=O)n(CC4CCCCC4)c(=O)n(CC4CCCCC4)c3[nH]2)cc1 [Example 108, 4-[1,3-Bis(cyclohexylmethyl)-1,2,3,6-tetrahydro-2,6-dioxo-9H-purin-8-yl]benzylamine N-Nonaethylene Glycol Methyl Ether] | 300 ± 82 | – |
| COCCOCCOCCOCCOCCOCCOCCOCCOCCOC(=O)c1ccc(-c2nc3c(=O)n(CC4CCCCC4)c(=O)n(CC4CCCCC4)c3[nH]2)cc1 [Example 65, 4-(1,3-bis(cyclohexylmethyl)-1,2,3,6-tetrahydro-2,6-dioxo-9H-purin-8-yl)benzoic Acid Nonaethylene Glycol Methyl Ether Ester] | 48 ± 19 | – |
| COCCOCCOCCOCCOCCOCCOCCNCc1ccc(-c2nc3c(=O)n(CC4CCCCC4)c(=O)n(CC4CCCCC4)c3[nH]2)cc1 [Example 107, 4-[1,3-Bis(cyclohexylmethyl)-1,2,3,6-tetrahydro-2,6-dioxo-9H-purin-8-yl]benzylamine N-Heptaethylene Glycol Methyl Ether Hydrochloride] | – | IC50 (Hydrochloride): 39 ± 19 nM |
| COCCOCCOCCOCCOCCOCCOCCOCCOCCNC(=O)/C=C/c1ccc(-c2nc3c(=O)n(Cc4ccccc4)c(=O)n(Cc4ccccc4)c3[nH]2)cc1 [Example 70, (E)-4-[1,3-bis(benzyl)-1,2,3,6-tetrahydro-2,6-dioxo-9H-purin-8-y]cinnamic Acid Nonaethylene Glycol Methyl Ether Amide] | > 1000 | – |
| COCCOCCOCCOCCOCCOCCOCCOCCOCCOC(=O)/C=C/c1ccc(-c2nc3c(=O)n(CC4CCCCC4)c(=O)n(CC4CCCCC4)c3[nH]2)cc1 [Example 35, (E)-4-[1,3-Bis(cyclohexylmethyl)-1,2,3,6-tetrahydro-2,6-dioxo-9H-purin-8-yl)cinnamic Acid Nonaethylene Glycol Methyl Ether Ester] | 29 ± 3 | – |
| CCOC(=O)Cn1c(-c2ccc(/C=C/C(=O)OCCOCCOCCOCCOCCOCCOCCOCCOCCOC)cc2)nc2c1c(=O)n(CC1CCCCC1)c(=O)n2CC1CCCCC1 [Example 84, (E)-4-(1,3-Bis(cyclohexylmethyl)-2,3,6,7-tetrahydro-2,6-dioxo-7-(2-ethoxy-2-oxoethyl)-1H-purin-8-yl)cinnamic Acid Nonaethylene Glycol Methyl Ether Ester] | 7 ± 4 | – |
| COCCOCCOCCOCCOCCOCCOCCOCCOCCOC(=O)/C=C/c1ccc(-c2nc3c(c(=O)n(CC4CCCCC4)c(=O)n3CC3CCCCC3)n2CC(=O)c2ccccc2)cc1 [Example 78, (E)-4-(1,3-Bis(cyclohexylmethyl)-2,3,6,7-tetrahydro-2,6-dioxo-7-(2-oxo-2-phenylethyl)-1H-purin-8-yl)cinnamic Acid Nonaethylene Glycol Methyl Ether Ester] | 0.1 ± 0.09 | – |
| COCCOCCOCCOCCOCCOCCOCCOCCOCCNC(=O)c1ccc(-c2nc3c(=O)n(CC4CCCCC4)c(=O)n(CC4CCCCC4)c3[nH]2)cc1 [Example 75, 4-(1,3-Bis(cyclohexylmethyl)-1,2,3,6-tetrahydro-2,6-dioxo-9H-purin-8-yl)benzoic Acid Nonaethylene Glycol Methyl Ether Amide] | 60 ± 25 | – |
| COCCOCCOCCOCCOCCOCCOCCOCCOCCOC(=O)/C=C/c1ccc(-c2nc3c(=O)n(C)c(=O)n(Cc4ccc(C#N)cc4)c3[nH]2)cc1 [Example 51, (E)-4-(1-methyl-3-(4-cyanobenzyl)-1,2,3,6-tetrahydro-2,6-dioxo-9H-purin-8-yl)cinnamic Acid Nonaethylene Glycol Methyl Ether Ester] | > 2000 | – |
| COCCOCCOCCOCCOCCOCCOCCOCCOCCOC(=O)/C=C/c1ccc(-c2nc3c(=O)n(C4CCCCC4)c(=O)n(C4CCCCC4)c3[nH]2)cc1 [Example 66, (E)-4-[1,3-Bis(cyclohexyl)-1,2,3,6-tetrahydro-2,6-dioxo-9H-purin-8-yl]cinnamic Acid Nonaethylene Glycol Methyl Ether Ester] | 230 ± 100 | – |
| COCCOCCOCCOCCOCCOCCOCCOCCOCCOC(=O)/C=C/c1ccc(-c2nc3c(=O)n(C)c(=O)n(CC4CCCCC4)c3[nH]2)cc1 [Example 62] | 160 ± 85 | – |
| COCCOCCOCCOCCOCCOCCOCCOCCOCCOC(=O)/C=C/c1ccc(-c2nc3c(=O)n(Cc4cccc(F)c4)c(=O)n(Cc4cccc(F)c4)c3[nH]2)cc1 [Example 53, (E)-4-(1,3-bis(3-fluorobenzyl)-1,2,3,6-tetrahydro-2,6-dioxo-9H-purin-8-yl)cinnamic Acid Nonaethylene Glycol Methyl Ether Ester] | 39 ± 13 | – |
| COCCOCCOCCN(CCOCCOCCOC)C(=O)/C=C/c1ccc(-c2nc3c(=O)n(CC4CCCCC4)c(=O)n(CC4CCCCC4)c3[nH]2)cc1 [Example 95, (E)-4-(1,3-bis(cyclohexylmethyl)-1,2,3,6-tetrahydro-2,6-dioxo-9H-purin-8-yl)cinnamic Acid N,N-Bis Triethylene Glycol Methyl Ether Amide] | 1700 ± 690 | – |
| COCCOCCOCCOCCOCCOCCOCCOCCOCCOC(=O)/C=C/c1ccc(-c2nc3c([nH]2)c(=O)n(CC2CCCCC2)c(=O)n3CC2CCCCC2)s1 [Example 98, (E)-3-[5-[1,3-bis(cyclohexylmethyl)-2,3,6,7-tetrahydro-2,6-dioxo-1H-purin-8-yl]-2-thienyl]-2-propenoic Acid Nonaethylene Glycol Methyl Ether Ester] | 37 ± 23 | – |
| COCCOCCOCCOCCOCCOCCOCCOCCOCCNC(=O)/C=C/c1ccc(-c2nc3c(=O)n(CC4CCCC4)c(=O)n(CC4CCCC4)c3[nH]2)cc1 [Example 71, (E)-4-(1,3-bis(cyclopentylmethyl)-1,2,3,6-tetrahydro-2,6-dioxo-9H-purin-8-yl)cinnamic Acid Nonaethylene Glycol Methyl Ether Amide] | 240 ± 200 | – |
| CCn1c(-c2ccc(/C=C/C(=O)OCCOCCOCCOCCOCCOCCOCCOCCOCCOC)cc2)nc2c1c(=O)n(CC1CCCCC1)c(=O)n2CC1CCCCC1 [Example 83, (E)-4-(1,3-Bis(cyclohexylmethyl)-2,3,6,7-tetrahydro-2,6-dioxo-7-ethyl-1H-purin-8-yl)cinnamic Acid Nonaethylene Glycol Methyl Ether Ester] | 28 ± 12 | – |
| COCCOCCOCCOCCOCCOCCOCCOCCOCCNC(=O)c1ccc(-c2nc3c(c(=O)n(CC4CCCCC4)c(=O)n3CC3CCCCC3)n2C)cc1 [Example 94, 4-(1,3-Bis(cyclohexylmethyl)-2,3,6,7-tetrahydro-2,6-dioxo-7-methyl-1H-purin-8-yl)benzoic Acid Nonaethylene Glycol Methyl Ether Amide] | 220 ± 87 | – |
| COCCOCCOCCOCCOCCOCCOCCNCc1ccc(-c2nc3c(=O)n(CC4CCCCC4)c(=O)n(CC4CCCCC4)c3[nH]2)cc1 [Example 106, 4-[1,3-Bis(cyclohexylmethyl)-1,2.3,6-tetrahydro-2,6-dioxo-9H-purin-8-yl]benzylamine N-Heptaethylene Glycol Methyl Ether] | 110 ± 56 | – |
